According to patent publication US20100261751A1, “METHOD FOR D[…] OF THE TWO HUMAN IMMUNODEFICIENCY VIRUS (HIV) INTEGRASE ENZYMATIC […]” (priority 2007, published 2010):

Biological target: T1, HIV integrase (Human immunodeficiency virus type 1 group M subtype B, UniProt P04585)
T1 construct: stored proteins (integrase, wt, 49 μM in)
Assay: 3dQ assay: HIV integrase 3′-end processing fluorescence in vitro assay
Assay type: biochemical
Details: dose response, FIG. 1

T1 sequence (O75475 whole entry, other chains not shown): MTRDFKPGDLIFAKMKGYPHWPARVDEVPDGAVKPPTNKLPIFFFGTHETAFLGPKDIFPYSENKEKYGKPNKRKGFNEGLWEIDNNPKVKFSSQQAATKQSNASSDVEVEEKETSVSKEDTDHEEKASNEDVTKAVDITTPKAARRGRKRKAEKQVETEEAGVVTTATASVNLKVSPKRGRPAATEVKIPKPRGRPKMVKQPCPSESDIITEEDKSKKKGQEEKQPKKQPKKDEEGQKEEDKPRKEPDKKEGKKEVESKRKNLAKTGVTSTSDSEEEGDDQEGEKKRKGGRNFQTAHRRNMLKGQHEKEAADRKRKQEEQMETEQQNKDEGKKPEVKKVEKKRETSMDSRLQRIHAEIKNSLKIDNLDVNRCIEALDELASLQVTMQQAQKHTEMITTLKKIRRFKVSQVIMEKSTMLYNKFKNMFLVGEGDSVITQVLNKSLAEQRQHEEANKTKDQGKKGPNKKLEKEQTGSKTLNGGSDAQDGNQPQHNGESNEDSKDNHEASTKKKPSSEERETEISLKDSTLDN

## O=C(O)C(=O)CC(=O)c1cccn1Cc1ccc(F)cc1 [L731,988]
  inhibition of 3′-end processing (result in words): only showed a weak response
